Drawing on ChEMBL document CHEMBL1671653, “GT-1a or GT-1b subtype-specific resistance profiles for hepatitis C virus inhibitors telaprevir and HCV-796” (Antimicrob Agents Chemother, 2009), this text covers EC50 for two molecules.

What all share (type): functional, organism-based, Hepacivirus hominis
Assay [1] deals with Hepatitis C virus. The assay is described as follows: Antiviral activity against Hepatitis C virus GT-1a harboring NS5B polymerase M414T mutant gene.
Assay [2] has as its system Hepatitis C virus. The assay is described as follows: Antiviral activity against Hepatitis C virus GT-1b harboring wild type NS5B polymerase.
The test system of assay [3] is Hepatitis C virus. In words: Antiviral activity against Hepatitis C virus GT-1a harboring NS5B polymerase L392F/M414T mutant gene.
Assay [4] deals with Hepatitis C virus. In words: Antiviral activity against Hepatitis C virus GT-1a harboring NS5B polymerase L392F mutant gene.
Assay [5] concerns Hepatitis C virus. The assay is described as follows: Antiviral activity against Hepatitis C virus GT-1a harboring wild type NS5B polymerase.
Assay [6] concerns Hepatitis C virus. In words: Antiviral activity against Hepatitis C virus GT-1b assessed as inhibition of HCV replicon-encoded Renilla luciferase reporter activity after 3 days. The settings on record: 72 h. In general terms: A replicon is a self-replicating genome or part of one, used to study replication in cells.
Assay [7] has as its system Hepatitis C virus. The assay is described as follows: Antiviral activity against Hepatitis C virus GT-1b harboring NS5B polymerase C316Y mutant gene relative to wild type.
Assay [8] concerns Hepatitis C virus. The assay is described as follows: Antiviral activity against Hepatitis C virus GT-1a harboring NS5B polymerase C316Y/M414T mutant gene.
The test system of assay [9] is Hepatitis C virus. In words: Antiviral activity against Hepatitis C virus GT-1a harboring NS5B polymerase C316Y mutant gene.
Assay [10] concerns Hepatitis C virus. In words: Antiviral activity against Hepatitis C virus GT-1a harboring NS5B polymerase C316Y/L392F mutant gene.
Assay [11] deals with Hepatitis C virus. The assay is described as follows: Antiviral activity against Hepatitis C virus GT-1a assessed as inhibition of HCV replicon-encoded Renilla luciferase reporter activity after 3 days. The following applies: 72 h.

Structures are written as SMILES.

Regarding `CNC(=O)c1c(-c2ccc(F)cc2)oc2cc(N(CCO)S(C)(=O)=O)c(C3CC3)cc12` [NESBUVIR], the concentration for a half-maximal effect (EC50) (commonly the concentration giving half of the maximal effect) in assay [1] is 7 nM; in assay [2], 6 nM; in assay [3], 22 nM; in [4], 8 nM; in assay [5], 4 nM; in assay [6], 17 nM. The EC50 was determined as 6 nM in assay [7], 2800 nM in assay [8], 1700 nM in assay [9] and 3200 nM in [10].
Take `CCC[C@H](NC(=O)[C@@H]1[C@H]2CCC[C@H]2CN1C(=O)[C@@H](NC(=O)[C@@H](NC(=O)c1cnccn1)C1CCCCC1)C(C)(C)C)C(=O)C(=O)NC1CC1` [TELAPREVIR]: the figures for the EC50 in assay [11] and in assay [6] were 500 nM and 560 nM, respectively.
